Experimental data taken from publication PMC10916623, “Tissue distribution and pharmacokinetics of isoxanthohumol from hops in rodents” (Food Science & Nutrition, 2023).

Assay: Liver accumulation after intragastric IXA administration at various concentrations to rats for 28 days
Assay type: in vivo, Sprague–Dawley rats
Conditions: rat liver; IXA 112.5–1500 mg/kg BW once a day for 28 days; Pearson
Protocol: Six‐week‐old female Sprague–Dawley rats (Charles River Laboratories Japan, Inc., Yokohama, Japan) were housed in a room maintained at 20–26°C on a 12‐h light–dark cycle. The initial BW of rats was 176–179 g. They were allowed free access to a commercial diet (CRF‐1) and water during the experiment. IXA dissolved in injection solution was administered intragastrically to rats (112.5, 225, 360, 450, and 1500 mg/kg BW) daily for 28 days using a gastric feeding tube. We also set up a control group to which the injection solution was administered. The final BW of rats was 231–241 g. The liver was collected the day after the last administration. The rats were fasted for 16–24 h before they were euthanized, but they had free access to water. Liver samples were stored at −80°C until analysis.
Tissue sample deconjugation was performed as described in a previous report with slight modifications (Tanaka et al., [2022]). Tissues were homogenized in phosphate‐buffered saline (pH 7.4), which was nine times the tissue volume. The tissue homogenate was incubated in 50 mmol/L ascorbic acid (one‐fifth the volume of phosphate‐buffered saline) and 1.67 μkat/100 μL of β‐glucuronidase type H‐1 in 0.1 mol/L sodium acetate buffer (pH 4.7, nine times the volume of the sample) for 2 h at 37°C. Then, 2.4 nmol of QTM was added to samples as an internal standard. The supernatant was isolated by centrifugation at 17 × 10^3 m/s^2 (Kubota) for 5 min at 4°C. Then, methanol (Kanto Kagaku, 25183‐2B) was added to the pellets, and they were shaken for 1 min. The methanol layer and pellets were separated by centrifugation at 17 × 10^3 m/s^2 (Kubota, RY1071‐A000) for 5 min at 4°C. Methanol extraction was repeated three times. Finally, methanol extracts were mixed with the supernatant (the composition of the mixture was 30% methanol) and then applied to an Inert Sep C8 (200 mg/3 mL; GL Sciences, Tokyo, Japan; 5010‐61082) cartridge. The cartridge was preconditioned with 6 mL of 2% acetic acid in methanol, and then 9 mL of 2% acetic acid in water. The extracted tissue was passed through the cartridge, and it was washed with 5 mL of 2% acetic acid in 30% methanol aq. The flavonoids were eluted with 10 mL of 2% acetic acid in methanol.
The plasma and tissue extracts were evaporated using a Centrifugal Evaporator (EYERA, Tokyo, Japan, CVE‐3000). The samples were stored at −80°C until the next day. Then, the samples were dissolved in 120 μL of a mobile phase solution and divided into two test tubes. […]
IXA and 8‐PN concentrations were determined by their respective standard curves using an internal standard method. […] Because clear peaks over 4.5 pmol/sample were detected for IXA and 8‐PN by visual evaluation, we determined that these concentrations were the peak limit of detections for each flavonoid. […]

4,7‐dihydroxy‐5‐methoxy‐8‐prenylflavanone [IXA]
correlation coefficient between dose-concentration and accumulation: .813
